System: 786-0 complex spheroids with HUVEC/MSC, growth % test/control
Assay: Anticancer human tumor 786-0 cell line growth inhibition [AhR];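 also: compound exposure lasted seven days before the read-out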
Conditions: for IC50: curve of first compound; for viability, T/C: stronger effect = lower value
Text: Multicellular complex tumor spheroid response to aryl hydrocarbon receptor antagonists in combination with a variety of drugs and investigational agents in selected tumor cell lines
The current study was undertaken to assess response to aryl hydrocarbon receptor antagonists in combination with standard-of-care drugs and investigational agents in solid tumor complex spheroid models. Complex spheroids include a stromal component modeled by human endothelial cells (HUVEC) and fibroblasts modeled by human mesenchymal stem cells (MSCs). The concentration ranges selected for each drug and investigational agent were based upon clinically achievable concentrations if the clinical Cmax of the agent was known.
Compounds. The drugs and investigational agents: BAY 2416964 (NSC825713), GNF351 (NSC835774), CH-223191 (NSC835775), CPI-455 (NSC825282), aza-TdCyd (NSC777586), decitabine (NSC127716), belinostat (NSC758774), entinostat (NSC756642), pevonedistat (NSC761192), tazemetostat (NSC777109), talazoparib (NSC765396), olaparib (NSC753686), selinexor (NSC780203), nedisertib (M3814, NSC802822), bortezomib (NSC756655), venetoclax (NSC766270), doxorubicin (NSC123127), elimusertib (BAY189344, NSC800525), ceralasertib (AZD6738, NSC777638), TAK-243 (NSC785004), alisertib (NSC759677), etoposide (NSC141540), topotecan (NSC609699), eribulin (NSC707389), gemcitabine (NSC613327), carboplatin (NSC241240), cisplatin (NSC119875), and SN-38 (NSC673596) were obtained from the National Cancer Institute (NCI) Developmental Therapeutics Program Chemical Repository (32). The FDA-approved anticancer drug set is available from the Developmental Therapeutics Program at https://dtp.cancer.gov/organization/dscb/obtaining/available plates.htm. […] The stock solutions were prepared in dimethyl sulfoxide (DMSO, Sigma-Aldrich, St. Louis, MO, cat. D2650), except for the platinum compounds which were prepared in saline (Quality Biological, Gaithersburg, MD, cat. 114-055-101), at 800-fold the tested concentration and stored at -70 degrees C prior to their use. All drugs and investigational agents were tested over a range starting from a high concentration at or near the clinical Cmax and decreasing in half-log increments. If the clinical Cmax for an agent had not been determined, the highest concentration tested was 10 microM (Table 1).
Cell Culture. All cells were maintained in an incubator at 37 degrees C and 5% CO2 with 95% humidity. The PDC lines were cultured according to standard operating procedures established by the NCI PDMR (https://pdmr.cancer.gov). Briefly, all PDCs were thawed and cultured in Matrigel-coated flasks prepared with a working solution of 1X Ham's F-12 nutrient mix, without supplementation (Invitrogen, Waltham, MA, cat. 11765054), 100 U/mL penicillin-streptomycin (Invitrogen, cat. 15140122), and 2.5% Matrigel (Corning Inc., Corning, NY, cat. 354248) for the first three passages. All PDCs were cultured in complete DMEM/F-12 media containing advanced DMEM/F-12 (Invitrogen, cat. 12634028), 4.9% defined fetal bovine serum, heat inactivated (HyClone Laboratories Inc., Logan, UT, cat. SH30070.03HI), 389 ng/mL hydrocortisone (Sigma-Aldrich, cat. H4001), 9.7 ng/mL human EGF recombinant protein (Invitrogen, cat. PHG0313), 23.4 microg/mL adenine (Sigma-Aldrich, cat. A2786), 97.3 U/mL penicillin-streptomycin (Invitrogen, cat. 15140122), 1.9 mM L-glutamine (Invitrogen, cat. 25030081), and 9.7 microM Y-27632 dihydrochloride (Tocris Bioscience, Bristol, United Kingdom, cat. 1254). The PDCs were cultured in complete DMEM/F12 media without 10 microM Y-27632 dihydrochloride for at least two passages prior to the screen. The established cell lines NCI-H1341 and […] were cultured in DMEM/F-12, HEPES (Invitrogen, cat. 11330032), 5% defined fetal bovine serum (HyClone Laboratories Inc., cat. SH30070.03), ITS premix universal culture supplement [insulin (5 microg/mL), transferrin (5 microg/mL), and selenious acid (5 ng/mL)] […]

[1] = second compound 0.1 µM, first compound 0.0316 µM
[2] = second compound 0.1 µM, first compound 0.1 µM
[3] = second compound 0.316 µM, first compound 0.0316 µM
[4] = second compound 0.316 µM, first compound 0.1 µM
[5] = second compound 1 µM, first compound 0.0316 µM
[6] = second compound 1 µM, first compound 0.1 µM
[7] = second compound 3.16 µM, first compound 0.0316 µM
[8] = second compound 3.16 µM, first compound 0.1 µM
[9] = second compound 10 µM, first compound 0.0316 µM
[10] = second compound 10 µM, first compound 0.1 µM

Work on `Cn1ncnc1C1c2n[nH]c(=O)c3cc(F)cc(c23)NC1c1ccc(F)cc1` (stereo not given) + CC(CO)NC(=O)c1cc(-c2ccc(Cl)cc2)nn(-c2cnn(C)c2)c1=O yielded an IC50 (second compound 0.1 µM) of over 0.1 µM, an IC50 (second compound 0.316 µM) of over 0.1 µM and an IC50 (second compound 1 µM) of over 0.1 µM. The IC50 (second compound 3.16 µM) was over 0.1 µM, the IC50 (second compound 10 µM) was over 0.1 µM and the viability, T/C (second compound 0.1 µM, first compound 0.000316 µM) was 105%. The viability, T/C (second compound 0.1 µM, first compound 0.001 µM) was 97.4%, the viability, T/C (second compound 0.1 µM, first compound 0.00316 µM) was 95% and the viability, T/C (second compound 0.1 µM, first compound 0.01 µM) was 99.6%. The viability, T/C [1] was 113%, the viability, T/C [2] was 98.8% and the viability, T/C (second compound 0.316 µM, first compound 0.000316 µM) was 101%. For the same compound, the viability, T/C (second compound 0.316 µM, first compound 0.001 µM) was 105%, the viability, T/C (second compound 0.316 µM, first compound 0.00316 µM) was 97.8% and the viability, T/C (second compound 0.316 µM, first compound 0.01 µM) was 98.2%. The viability, T/C [3] was 109%, the viability, T/C [4] was 98.7% and the viability, T/C (second compound 1 µM, first compound 0.000316 µM) was 99.3%. It also gave a viability, T/C (second compound 1 µM, first compound 0.001 µM) of 107%, a viability, T/C (second compound 1 µM, first compound 0.00316 µM) of 105% and a viability, T/C (second compound 1 µM, first compound 0.01 µM) of 110%. The viability, T/C [5] was 107%, the viability, T/C [6] was 99.3% and the viability, T/C (second compound 3.16 µM, first compound 0.000316 µM) was 107%. It also gave a viability, T/C (second compound 3.16 µM, first compound 0.001 µM) of 102%, a viability, T/C (second compound 3.16 µM, first compound 0.00316 µM) of 99.1% and a viability, T/C (second compound 3.16 µM, first compound 0.01 µM) of 111%. For the same compound, the viability, T/C [7] was 100%, the viability, T/C [8] was 102% and the viability, T/C (second compound 10 µM, first compound 0.000316 µM) was 114%. The viability, T/C (second compound 10 µM, first compound 0.001 µM) was 118%, the viability, T/C (second compound 10 µM, first compound 0.00316 µM) was 110% and the viability, T/C (second compound 10 µM, first compound 0.01 µM) was 111%. It also gave a viability, T/C [9] of 110% and a viability, T/C [10] of 110%.
Work on `NS(=O)(=O)OCC1CC(n2ccc3c(NC4CCc5ccccc54)ncnc32)CC1O` (stereo not given) + CC(CO)NC(=O)c1cc(-c2ccc(Cl)cc2)nn(-c2cnn(C)c2)c1=O yielded an IC50 (second compound 0.1 µM) of 0.365 µM, an IC50 (second compound 0.316 µM) of 0.344 µM and an IC50 (second compound 1 µM) of 0.376 µM. It also gave an IC50 (second compound 3.16 µM) of 0.249 µM, an IC50 (second compound 10 µM) of 0.261 µM and a viability, T/C [1] of 78.8%. For the same compound, the viability, T/C [2] was 78.7%, the viability, T/C (second compound 0.1 µM, first compound 0.316 µM) was 52.8% and the viability, T/C (second compound 0.1 µM, first compound 1 µM) was 20.9%. For the same compound, the viability, T/C (second compound 0.1 µM, first compound 3.16 µM) was 3.93%, the viability, T/C (second compound 0.1 µM, first compound 10 µM) was 1.87% and the viability, T/C [3] was 86.8%. For the same compound, the viability, T/C [4] was 73.3%, the viability, T/C (second compound 0.316 µM, first compound 0.316 µM) was 54.5% and the viability, T/C (second compound 0.316 µM, first compound 1 µM) was 19.6%. The viability, T/C (second compound 0.316 µM, first compound 3.16 µM) was 4.23%, the viability, T/C (second compound 0.316 µM, first compound 10 µM) was 2.08% and the viability, T/C [5] was 77.4%. For the same compound, the viability, T/C [6] was 72.1%, the viability, T/C (second compound 1 µM, first compound 0.316 µM) was 55.2% and the viability, T/C (second compound 1 µM, first compound 1 µM) was 21.8%. The viability, T/C (second compound 1 µM, first compound 3.16 µM) was 4%, the viability, T/C (second compound 1 µM, first compound 10 µM) was 2.14% and the viability, T/C [7] was 87.8%. For the same compound, the viability, T/C [8] was 67.7%, the viability, T/C (second compound 3.16 µM, first compound 0.316 µM) was 47.6% and the viability, T/C (second compound 3.16 µM, first compound 1 µM) was 19.1%. It also gave a viability, T/C (second compound 3.16 µM, first compound 3.16 µM) of 3.93%, a viability, T/C (second compound 3.16 µM, first compound 10 µM) of 2.48% and a viability, T/C [9] of 93%. The viability, T/C [10] was 72.9%, the viability, T/C (second compound 10 µM, first compound 0.316 µM) was 46.5% and the viability, T/C (second compound 10 µM, first compound 1 µM) was 18.7%. The viability, T/C (second compound 10 µM, first compound 3.16 µM) was 3.17% and the viability, T/C (second compound 10 µM, first compound 10 µM) was 2.21%.
